Measured values published in patent US6953813B1, “2-Aminotetralin derivatives for the therapy of glaucoma” (Chiesi Farmaceutici S.p.A., priority 1999, dated 2005).

How the values were obtained:
[1] = in vivo; cited from earlier work
rabbit = details: cited from earlier work; for effect on intraocular pressure: ophthalmic drops
[2] = system: normotensive Dutch Belted rabbits; assay: Intraocular pressure (IOP) after single dose in normotensive rabbits; type: in vivo, rabbit; details: 0.2% w/v
Description: Water (pH 4.5, made isotonic with sodium chloride), was selected as vehicle for the IOP-studies.
Five concentrations (0.01, 0.05, 0.2, 0.5 and 1.0% w/v) of CHF 1035 were studied. Brimonidine (0.2% w/v) was used as a positive, and vehicle (water pH 4.5) as a negative control.
The experimental animals used were normotensive Dutch Belted rabbits of either gender (n=6). A single drop (25 μl) of the test solution was instilled unilaterally into the left eye (treated eye). IOP of the rabbits (treated and untreated eyes) was measured at 1 and 0 h before, and at 0.5, 1, 2, 3, 4, 5, 6 and 7 h after topical eyedrop administration. IOP at the time of eyedrop administration (0 h) was used as a baseline value. IOP was measured using a BioRad Pneumatonometer. More detailed description of the IOP measurement procedure can be found in Pharm. Res. 14, 1738-1743, 1997 and Curr. Eye Res. 14, 791-797, 1995. All the studies were set up using a randomized crossover design. At least 72 h of wash-out time was allowed for each rabbit between dosings. The irritation caused by an instilled eyedrop were evaluated by recording the extent of eyelid closure after topical eyedrop administration.

Q: With `CCCN(CCc1cccs1)C1CCc2c(O)cccc2C1` (stereo not drawn) [2-(N-propyl-N-2-thienylethylamino)-5-hydroxytetralin] as the compound, how does the ocular side effects [1] read?
A: can also induce eye irritation

Q: For `NC1CCc2cc(O)c(O)cc2C1` (stereo not drawn) [6,7-dihydroxy-2-aminotetralin], which “effect on intraocular pressure” value (rabbit) is on record?
A: gives rise to eye hypotension in the rabbit

Q: With `Brc1c(NC2=NCCN2)ccc2nccnc12` [Brimonidine, reference compound] as the compound, how does the “IOP changes (mean ± SEM) in the treated eye” value ([2]; 0 min) read?
A: 0.0 ± 0.0 mmHg

Q: What about the “IOP changes (mean ± SEM) in the treated eye” value ([2]; 30 min) of the same compound?
A: −2.7 ± 0.9 mmHg

Q: What about the “IOP changes (mean ± SEM) in the treated eye” value ([2]; 60 min) of the same compound?
A: −7.8 ± 0.9 mmHg

Q: What about the “IOP changes (mean ± SEM) in the treated eye” value ([2]; 120 min) of the same compound?
A: −6.2 ± 1.4 mmHg

Q: What about the “IOP changes (mean ± SEM) in the treated eye” value ([2]; 180 min) of the same compound?
A: −3.9 ± 0.8 mmHg

Q: And the “IOP changes (mean ± SEM) in the treated eye” value ([2]; 240 min)?
A: −3.4 ± 0.7 mmHg

Q: And the “IOP changes (mean ± SEM) in the treated eye” value ([2]; 300 min)?
A: −2.4 ± 0.7 mmHg

Q: What about the “IOP changes (mean ± SEM) in the treated eye” value ([2]; 360 min) of the same compound?
A: −0.4 ± 0.6 mmHg

Q: What about the “IOP changes (mean ± SEM) in the treated eye” value ([2]; 420 min) of the same compound?
A: 0.2 ± 0.3 mmHg

Q: And the “IOP changes (mean ± SEM) in the untreated eye” value ([2]; 0 min)?
A: 0.0 ± 0.0 mmHg

Q: And the “IOP changes (mean ± SEM) in the untreated eye” value ([2]; 30 min)?
A: −3.2 ± 1.2 mmHg

Q: What about the “IOP changes (mean ± SEM) in the untreated eye” value ([2]; 60 min) of the same compound?
A: −8.7 ± 0.8 mmHg

Q: What about the “IOP changes (mean ± SEM) in the untreated eye” value ([2]; 120 min) of the same compound?
A: −3.3 ± 1.3 mmHg

Q: And the “IOP changes (mean ± SEM) in the untreated eye” value ([2]; 180 min)?
A: −1.7 ± 0.9 mmHg

Q: And the “IOP changes (mean ± SEM) in the untreated eye” value ([2]; 240 min)?
A: −2.1 ± 1.0 mmHg

Q: And the “IOP changes (mean ± SEM) in the untreated eye” value ([2]; 300 min)?
A: −0.6 ± 0.9 mmHg

Q: What about the “IOP changes (mean ± SEM) in the untreated eye” value ([2]; 360 min) of the same compound?
A: 0.1 ± 0.6 mmHg

Q: And the “IOP changes (mean ± SEM) in the untreated eye” value ([2]; 420 min)?
A: 0.0 ± 0.6 mmHg

Q: Which ocular side effects [1] does the source give for `CNCC(O)c1ccc(OC(=O)C(C)(C)C)c(OC(=O)C(C)(C)C)c1` (stereo not drawn) [Dipivefrin] here?
A: pain in the eye and in the superciliary arch as well as corneal vascularization and opacification during long-term use

Q: For `CN(C)C1CCc2c(ccc(O)c2O)C1` (stereo not drawn) [M-7, N,N-dimethyl-5,6-dihydroxy-2-aminotetralin], which “concentration inducing eye irritation” value (rabbit; in vivo) is on record?
A: 0.1%

Q: What about the “effect on intraocular pressure” value (rabbit) of the same compound?
A: active as well in reducing intraocular pressure

Q: Which “effect on intraocular pressure” value (rabbit) does the source give for `CN(C)C1CCc2cc(O)c(O)cc2C1` (stereo not drawn) [N,N-dimethyl-6,7-dihydroxy-2-aminotetralin] here?
A: gives rise to eye hypotension in the rabbit
